Experimental data from patent US20180161386A1, “PHARMACEUTICAL COMPOSITION FOR TREATMENT OF DEPRESSION AND PREPARATION METHOD THEREOF” (THISHERB HEALTH PTY LTD, priority 2015, published 2018).
Structures can show the parent of a compound that is named as a salt.

Columns and labels:
[1] = system: mice; experiment: opening test (independent activity, open box); format: in vivo, mouse
Description: (§1) 1.1 Drug testing and reagents: The capsules pharmaceutical compositions for the treatment of depression in form of obtained in Example 2 compared with fluoxetine hydrochloride. 1.2 Animals: 20 male and 20 female mice provided by the Experimental Animal Center; average body mass of 18-22 g. 1.3 Instruments: Mouse-tail suspension device (a wooden board of about 1 meter in length, fixed onto a desktop with a horizontal distance of about 15 cm), swimming model device (a glass tank with a height of 30 cm, a diameter of 14 cm, a water depth of 10 cm, and temperature of 25° C.), and homemade open box. 1.4 Grouping: The mice were fed for one week, during which time the mice feed and drink freely. The mice were randomly divided into four groups of control group, depression capsule low-dose group (hereinafter referred to as the low-dose group), depression capsule high-dose group (hereinafter referred to as the high-dose group), the positive groups, 10 mice per group. […]
A wooden box was provided with 36 cm×36 cm×27 cm, the bottom of which is divided into 25 squares. The test was performed in 1 h after last drug administration, and the number of the mouse crossing the grids and vertical climbing within last 3 min for 5 min period was recorded.

[2] = system: mice; experiment: mouse forced swimming test; format: in vivo
Description: 1.1 Drug testing and reagents: The capsules pharmaceutical compositions for the treatment of depression in form of obtained in Example 2 compared with fluoxetine hydrochloride. 1.2 Animals: 20 male and 20 female mice provided by the Experimental Animal Center; average body mass of 18-22 g. 1.3 Instruments: Mouse-tail suspension device (a wooden board of about 1 meter in length, fixed onto a desktop with a horizontal distance of about 15 cm), swimming model device (a glass tank with a height of 30 cm, a diameter of 14 cm, a water depth of 10 cm, and temperature of 25° C.), and homemade open box. 1.4 Grouping: The mice were fed for one week, during which time the mice feed and drink freely. The mice were randomly divided into four groups of control group, depression capsule low-dose group (hereinafter referred to as the low-dose group), depression capsule high-dose group (hereinafter referred to as the high-dose group), the positive groups, 10 mice per group. 1.5 Drug administration: The control group was given saline daily at 0.2 ml/10 g; the positive control group was given fluoxetine hydrochloride 2.4 mg/kg; the low-dose group was given depression capsules 1.05 g/kg; and the high-dose group was given depression capsules 4.20 g/kg. The route of administration was directly into the stomach.
1.6.2 Mouse forced swimming test: Refer to method by Prosolt et al. […]

[3] = system: mice; experiment: mouse-tail suspension test; format: in vivo
Description: as §1
The mouse was suspended by its tail so that the tail was adhered (1 cm from the tail end of the mouse) to the horizontal plank of wooden board by tape with its head about 5 cm above the desktop. […] The test was performed in 1 h after last drug administration and the time of the mouse being immobile within last 4 min for 6 min period was recorded.

[4] = positive group 2.4 mg/kg, P<0.01

CNCCC(Oc1ccc(C(F)(F)F)cc1)c1ccccc1 (stereo not drawn) [fluoxetine hydrochloride]
the number of squares crossed by mouse ([1]; mice, positive control group 0.0024 g/kg (2.4 mg/kg), directly into the stomach, 1 h after last administration, last 3 min of 5 min, ±s, n = 10): 43.9 ± 13.3
effect on independent activity in the opening test compared with the control group ([1]; positive group 2.4 mg/kg, P>0.05): no significant difference
Immobile time in mouse forced swimming test ([2]; mice, positive control group 0.0024 g/kg (2.4 mg/kg), directly into the stomach, 1 h after last administration, last 4 min of 6 min, water 25° C., x ± s, n = 10): 83.5 s
effect on immobile time in mouse forced swimming test compared with the control group [2, 4]: highly significant difference
Immobile time in the mouse-tail suspension test ([3]; mice, positive control group 0.0024 g/kg (2.4 mg/kg), directly into the stomach, 1 h after last administration, last 4 min of 6 min, x ± s, n = 10): 73 s
effect on immobile time in mouse-tail suspension test compared with the control group [3, 4]: highly significant difference
